Holding throughout (format): functional, cell-based, Homo sapiens
The subject of assay [1] is CEM-SS. The experiment in a line: Compound was evaluated for inhibitory activity against cell growth.
The test system of assay [2] is CEM-SS. The experiment in a line: Effective concentration required for 50% inhibition of viral replication by XTT cytoprotection assay carried out in CEM-SS cells.
The subject of assay [3] is CEM-SS. The experiment in a line: Effective concentration required for 50% inhibition of viral replication by syncytium-forming assay carried out in CEM-SS cells.

The structures appear in SMILES notation. Several values for one entry are separate records, joined by “and”; a condition that tells them apart may be missing. Equal entries are not always repeated.

`CC1(C)CCC[C@]2(C)[C@@H](c3ccoc3)C(=O)[C@@H]3O[C@]312`: in the assay with CEM-SS [1] (cem-ss), the IC50 (commonly the concentration that inhibits the measured activity by half) was 48.3 µM and 154 µM. Moreover, the concentration giving a half-maximal response (EC50) – broadly, the concentration at which the effect is half-maximal – came to 42.1 µM in the assay with CEM-SS [2] (Homo sapiens, CEM-SS) and 15.4 µM in the assay with CEM-SS [3] (Homo sapiens, CEM-SS).
In the case of `CC1(C)CCC[C@@]2(C)[C@H](c3ccoc3)C(=O)[C@H]3O[C@@]312`, the IC50 in the assay on CEM-SS [1] (cem-ss) is 42.1 µM and 135 µM. Moreover, the EC50 is 0.8 µM with CEM-SS [2] (cem-ss) and 0.6 µM in the assay on CEM-SS [3] (cem-ss).
Consider `CC1(C)CCC[C@@]2(C)[C@H](c3ccoc3)C(=O)[C@H]3O[C@@]312` (racemic), for which the half-maximal inhibitory concentration (IC50) in the assay with CEM-SS [1] (cem-ss) is 45.7 µM and 53.8 µM. Further, the half-maximal effective concentration (EC50) in the assay on CEM-SS [2] (Homo sapiens, CEM-SS) was 1.3 µM; with CEM-SS [3] (cem-ss), 1.7 µM.
Compound `Cc1cn([C@H]2C[C@H](N=[N+]=[N-])[C@@H](CO)O2)c(=O)[nH]c1=O` [ZIDOVUDINE] showed a half-inhibitory concentration (IC50) with CEM-SS [1] (Homo sapiens, CEM-SS) above 1890 µM. The EC50 in the assay with CEM-SS [2] (Homo sapiens, CEM-SS) worked out at 0.3 µM; in the assay with CEM-SS [3] (Homo sapiens, CEM-SS), 0.02 µM.

Source of the values: ChEMBL document CHEMBL1150539, “A novel non nucleoside compound with high in vitro anti-HIV-1 activity. Absolute stereochemistry determination” (Bioorg Med Chem Lett, 1995).
